Experiments:
Cyclooxygenase = target: T1, Cyclooxygenase (Bos taurus, UniProt O62664+O62698); assay: Compound was evaluated for inhibition against cyclooxygenase of bovine seminal vesicles; assay type: protein assay
T1 sequence (O62664 whole entry): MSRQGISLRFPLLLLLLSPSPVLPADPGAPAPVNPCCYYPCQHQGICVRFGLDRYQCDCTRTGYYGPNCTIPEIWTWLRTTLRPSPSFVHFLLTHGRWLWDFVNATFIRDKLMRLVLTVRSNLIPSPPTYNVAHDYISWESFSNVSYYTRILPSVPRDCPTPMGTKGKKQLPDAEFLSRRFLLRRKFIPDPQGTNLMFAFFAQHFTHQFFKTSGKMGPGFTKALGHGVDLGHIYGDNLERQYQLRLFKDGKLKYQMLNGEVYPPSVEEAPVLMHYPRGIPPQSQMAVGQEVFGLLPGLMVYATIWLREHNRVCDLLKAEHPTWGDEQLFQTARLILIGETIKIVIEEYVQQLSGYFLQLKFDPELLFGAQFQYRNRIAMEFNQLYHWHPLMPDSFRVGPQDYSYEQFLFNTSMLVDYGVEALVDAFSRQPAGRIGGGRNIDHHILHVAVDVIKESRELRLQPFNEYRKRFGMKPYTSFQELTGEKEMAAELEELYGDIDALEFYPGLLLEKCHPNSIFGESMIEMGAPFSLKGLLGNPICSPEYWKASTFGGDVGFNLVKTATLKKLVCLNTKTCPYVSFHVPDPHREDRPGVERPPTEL
T1 sequence (O62698 whole entry): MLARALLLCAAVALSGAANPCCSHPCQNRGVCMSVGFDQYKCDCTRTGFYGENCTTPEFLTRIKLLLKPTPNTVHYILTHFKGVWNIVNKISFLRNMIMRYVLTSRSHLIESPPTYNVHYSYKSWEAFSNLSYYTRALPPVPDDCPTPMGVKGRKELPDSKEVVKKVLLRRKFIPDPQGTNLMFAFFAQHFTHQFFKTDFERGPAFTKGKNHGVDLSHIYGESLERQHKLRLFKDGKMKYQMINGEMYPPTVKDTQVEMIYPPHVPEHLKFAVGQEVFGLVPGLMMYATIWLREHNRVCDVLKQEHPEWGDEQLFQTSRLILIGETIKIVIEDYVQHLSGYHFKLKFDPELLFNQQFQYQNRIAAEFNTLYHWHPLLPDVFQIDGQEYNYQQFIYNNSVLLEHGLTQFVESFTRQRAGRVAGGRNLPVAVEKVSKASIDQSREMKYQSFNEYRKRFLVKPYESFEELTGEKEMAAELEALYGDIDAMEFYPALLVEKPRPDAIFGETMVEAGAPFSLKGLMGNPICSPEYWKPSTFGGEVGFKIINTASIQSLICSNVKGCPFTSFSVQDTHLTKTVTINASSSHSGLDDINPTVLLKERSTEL

[1] = target: T2, Polyunsaturated fatty acid 5-lipoxygenase (Rattus norvegicus, UniProt P12527); assay: Inhibition of 5-Lipoxygenase of rat basophilic leukemia cells; assay type: cell-based, RBL-1
T2 sequence (P12527 whole entry): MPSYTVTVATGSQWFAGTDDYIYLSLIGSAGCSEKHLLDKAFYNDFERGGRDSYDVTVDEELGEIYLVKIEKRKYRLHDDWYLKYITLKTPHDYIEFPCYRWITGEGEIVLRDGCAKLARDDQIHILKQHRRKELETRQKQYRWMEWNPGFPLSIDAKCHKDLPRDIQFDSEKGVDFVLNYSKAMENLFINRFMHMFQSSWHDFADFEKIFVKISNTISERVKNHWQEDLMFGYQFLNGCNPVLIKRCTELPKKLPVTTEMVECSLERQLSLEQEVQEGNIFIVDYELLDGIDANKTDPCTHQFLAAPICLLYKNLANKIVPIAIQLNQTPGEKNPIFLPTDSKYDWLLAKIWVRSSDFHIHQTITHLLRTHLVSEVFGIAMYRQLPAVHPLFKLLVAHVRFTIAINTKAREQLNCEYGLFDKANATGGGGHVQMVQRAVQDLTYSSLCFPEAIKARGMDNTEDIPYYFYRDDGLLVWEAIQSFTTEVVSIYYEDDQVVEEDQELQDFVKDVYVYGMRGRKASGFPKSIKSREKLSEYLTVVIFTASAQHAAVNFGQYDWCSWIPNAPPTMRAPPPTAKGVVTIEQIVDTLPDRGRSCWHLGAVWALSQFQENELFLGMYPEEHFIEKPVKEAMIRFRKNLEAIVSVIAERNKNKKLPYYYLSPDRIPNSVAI

Structure (SMILES) | IC50 (Cyclooxygenase) | IC50 [1]
O=C1CCN(c2ccccc2)N1 [PHENIDONE] | 6.9 µM | 
C/C(=C/N(O)Cc1ccccc1)C(=O)c1ccc(F)cc1 |  | 0.3 µM
O=C(/C=C\N(O)C1CCCCC1)c1ccc(F)cc1 | > 750 µM | 
CC(=O)ON(/C=C\C(=O)c1ccc(F)cc1)Cc1ccccc1 | > 750 µM | 
CC(c1cc2ccccc2s1)N(O)C(N)=O (configuration not stated) [ZILEUTON] | > 750 µM | 

More lines, now with the values ahead:

IC50 (Cyclooxygenase) | IC50 [1] | Structure (SMILES)
> 750 µM |  | CON(/C=C\C(=O)c1ccc(F)cc1)Cc1ccccc1
> 750 µM |  | O=C(/C=C\N(O)Cc1ccccc1)c1ccc(F)cc1

Source: ChEMBL document CHEMBL1126456, “Vinylogous hydroxamic acids: 5-lipoxygenase inhibitors” (Bioorg Med Chem Lett, 1992)
